Patent publication US20230339866A1, “Quinazoline compounds and the use thereof in the treatment of cancer” (TROBIO THERAPEUTICS PTY LTD, priority 2020, published 2023)

What was measured:
A2780 (ovarian) = experiment: Anti-proliferative activity (Cell-Titre luminescence) against A2780 ovarian cancer cells; assay type: cell-based; settings: Homo sapiens, 72 h exposure, Cell-Titre luminescent reagent
Procedure: (§1) The ability of compounds of the invention to inhibit the proliferation of cancer cells representative of non-small cell lung cancer and ovarian cancer (Table 2), pancreatic cancer, colorectal cancer and prostate cancer (Table 3) was assessed. Briefly, a predetermined number of cells as calculated from cell growth assays for each of the cell lines employed were seeded into their respective culture medium (using ATCC culture parameters—http://www.atcc.org) and cultured for 24 h at 37° C. and 5% CO2 in 96-well culture plates. Once attached, each cell line was then exposed to various concentrations of each respective analogue (30, 10, 3, 1, 0.3 and 0.1 μM), cultured for a further 72 h and exposed to Cell-Titre luminescent reagent (100 μL/well) for a further 30 min. Luminescence was captured using an EnVision multilabel reader and the data for each analogue concentration compared against no treatment control. Cell viability was normalised to control (vehicle alone) and dose response curves, and half maximal effective concentration (EC50) values were determined using Graph Pad Prism 6 (nonlinear regression sigmoidal dose-response variable slope).

A549 (NSCLC) = experiment: Anti-proliferative activity (Cell-Titre luminescence) against A549 non-small cell lung cancer cells; assay type: cell-based; settings: Homo sapiens, 72 h exposure, Cell-Titre luminescent reagent
Procedure: as §1

Compound | IC50 (A2780 (ovarian); A2780, 72 h) [µM] | IC50 (A549 (NSCLC); A549, 72 h) [µM] | IC50 (A2780 (ovarian); A2780) [µM] | IC50 (A549 (NSCLC); A549) [µM]
CN(C)CCCNc1nc(Nc2cccc(F)c2)nc2ccccc12 [Compound 72, N^4-(3-(dimethylamino)propyl)-N^2-(3-fluorophenyl)quinazoline-2,4-diamine] | 3.43 | 11.2 | – | –
CCc1ccc(Nc2nc(NCCN(C)C)c3ccccc3n2)cc1 [Compound 62, N^4-(2-(dimethylamino)ethyl)-N^2-(4-ethylphenyl)quinazoline-2,4-diamine] | 13.1 | 7.5 | – | –
CN1CCN(CCNc2nc(NCc3cccc(C(F)(F)F)c3)nc3ccccc23)CC1 [Compound 46, N^4-(2-(4-methylpiperazin-1-yl)ethyl)-N^2-(3-(trifluoromethyl)benzyl)quinazoline-2,4-diamine] | 2.34 | 3.04 | – | –
COc1cc(CCNc2nc(NCCN3CCN(C)CC3)c3ccccc3n2)cc(OC)c1OC [Compound 142, N^4-(2-(4-methylpiperazin-1-yl)ethyl)-N^2-(3,4,5-trimethoxyphenethyl)quinazoline-2,4-diamine] | > 30 | > 30 | – | –
OCCNc1nc(NCc2cccc(C(F)(F)F)c2)nc2ccccc12 [Compound 2, 2-((2-((3-(trifluoromethyl)benzyl)amino)quinazolin-4-yl)amino)ethan-1-ol] | – | – | 10.7 | 11.1
CN(C)CCCNc1nc(Nc2ccc(F)cc2)nc2ccccc12 [Compound 73, N^4-(3-(dimethylamino)propyl)-N^2-(4-fluorophenyl)quinazoline-2,4-diamine] | 2.13 | 11.7 | – | –
CN(C)CCCNc1nc(-c2cc[nH]c2)nc2ccccc12 [Compound 102, N^1-(2-(1H-pyrrol-3-yl)quinazolin-4-yl)-N^3,N^3-dimethylpropane-1,3-diamine] | 1.32 | 7.45 | – | –
COc1cccc(CCNc2nc(NCCO)c3ccccc3n2)c1 [Compound 38, 2-((2-((3-methoxyphenethyl)amino)quinazolin-4-yl)amino)ethan-1-ol] | 18.8 | 26.8 | – | –
FC(F)(F)c1cccc(CCNc2nc(NCCN3CCCC3)c3ccccc3n2)c1 [Compound 115, N^4-(2-(pyrrolidin-1-yl)ethyl)-N^2-(3-(trifluoromethyl)phenethyl)quinazoline-2,4-diamine] | 1.24 | 2.52 | – | –
CC(C)C(CNc1nc(-c2ccc[nH]2)nc2ccccc12)N1CCN(C)CC1 (stereo not drawn) [Compound 4, N-(3-methyl-2-(4-methylpiperazin-1-yl)butyl)-2-(1H-pyrrol-2-yl)quinazolin-4-amine] | 8.3 | 8.56 | – | –
c1ccc2c(NCCc3c[nH]cn3)nc(-n3cccc3)nc2c1 [Compound 108, N-(2-(1H-imidazol-4-yl)ethyl)-2-(1H-pyrrol-1-yl)quinazolin-4-amine] | 5.79 | 9.53 | – | –
CCc1ccc(CCNc2nc(NCCN(C)C)c3ccccc3n2)cc1 [Compound 66, N^4-(2-(dimethylamino)ethyl)-N^2-(4-ethylphenethyl)quinazoline-2,4-diamine] | 13.7 | > 30 | – | –
OCCNc1nc(NCCc2ccc(C(F)(F)F)cc2)nc2ccccc12 [Compound 37, 2-((2-((4-(trifluoromethyl)phenethyl)amino)quinazolin-4-yl)amino)ethan-1-ol] | 3.82 | 3.82 | – | –
CN1CCN(CCNc2nc(NCCc3ccc(F)cc3)nc3ccccc23)CC1 [Compound 59, N^2-(4-fluorophenethyl)-N^4-(2-(4-methylpiperazin-1-yl)ethyl)quinazoline-2,4-diamine] | 5.54 | 3.7 | – | –
CN1CCN(CCNc2nc(NCCc3cc(F)c(F)c(F)c3)nc3ccccc23)CC1 [Compound 141, N^4-(2-(4-methylpiperazin-1-yl)ethyl)-N^2-(3,4,5-trifluorophenethyl)quinazoline-2,4-diamine] | 1.22 | 3.3 | – | –
CN1CCN(CCNc2nc(NCCc3ccccn3)nc3ccccc23)CC1 [Compound 144, N^4-(2-(4-methylpiperazin-1-yl)ethyl)-N^2-(2-(pyridin-2-yl)ethyl)quinazoline-2,4-diamine] | 9.37 | 27.8 | – | –
c1ccc2c(NCCc3c[nH]cn3)nc(-c3cc[nH]c3)nc2c1 [Compound 107, N-(2-(1H-imidazol-4-yl)ethyl)-2-(1H-pyrrol-3-yl)quinazolin-4-amine] | 1.95 | 9.4 | – | –
NCCCNc1nc(NCCc2cccc(C(F)(F)F)c2)nc2ccccc12 [Compound 119, N^4-(3-aminopropyl)-N^2-(3-(trifluoromethyl)phenethyl)quinazoline-2,4-diamine] | 0.759 | 2.46 | – | –
OCCNc1nc(Nc2ccccc2)nc2ccccc12 [Compound 26, 2-((2-(phenylamino)quinazolin-4-yl)amino)ethan-1-ol] | 16.9 | 22 | – | –
FC(F)(F)c1cccc(CCNc2nc(NCCN3CCCCC3)c3ccccc3n2)c1 [Compound 114, N^4-(2-(piperidin-1-yl)ethyl)-N^2-(3-(trifluoromethyl)phenethyl)quinazoline-2,4-diamine] | 0.937 | 2.36 | – | –
CN(C)CCNc1nc(Nc2cccc(F)c2)nc2ccccc12 [Compound 63, N^4-(2-(dimethylamino)ethyl)-N^2-(3-fluorophenyl)quinazoline-2,4-diamine] | 5.67 | 19.8 | – | –
CN1CCN(CCNc2nc(NCCc3ccc(F)c(F)c3)nc3ccccc23)CC1 [Compound 136, N^2-(3,4-difluorophenethyl)-N^4-(2-(4-methylpiperazin-1-yl)ethyl)quinazoline-2,4-diamine] | 1.03 | 4.77 | – | –
CN1CCN(CCNc2nc(-c3ccc[nH]3)nc3ccccc23)CC1 [Compound 12, N-(2-(4-methylpiperazin-1-yl)ethyl)-2-(1H-pyrrol-2-yl)quinazolin-4-amine] | 10.2 | 8.24 | – | –
OCCNc1nc(N2CCCC2)nc2ccccc12 [Compound 24, 2-((2-(pyrrolidin-1-yl)quinazolin-4-yl)amino)ethan-1-ol] | > 30 | > 30 | – | –
OCCNc1nc(-c2ccoc2)nc2ccccc12 [Compound 23, 2-((2-(furan-3-yl)quinazolin-4-yl)amino)ethan-1-ol] | > 30 | > 30 | – | –
OCCNc1nc(-c2ccsc2)nc2ccccc12 [Compound 19, 2-((2-(thiophen-3-yl)quinazolin-4-yl)amino)ethan-1-ol] | > 30 | > 30 | – | –
CN1CCN(CCNc2nc(NCCc3cc(F)cc(F)c3)nc3ccccc23)CC1 [Compound 138, N^2-(3,5-difluorophenethyl)-N^4-(2-(4-methylpiperazin-1-yl)ethyl)quinazoline-2,4-diamine] | 1.1 | 6.07 | – | –
COc1ccc(Nc2nc(NCCCN(C)C)c3ccccc3n2)cc1 [Compound 70, N^4-(3-(dimethylamino)propyl)-N^2-(4-methoxyphenyl)quinazoline-2,4-diamine] | 8.33 | 11.7 | – | –
FC(F)(F)c1cccc(CCNc2nc(NCCN3CCOCC3)c3ccccc3n2)c1 [Compound 113, N^4-(2-morpholinoethyl)-N^2-(3-(trifluoromethyl)phenethyl)quinazoline-2,4-diamine] | 2.54 | 8.79 | – | –
OCCNc1nc(Nc2ccccc2O)nc2ccccc12 [Compound 149] | 5.04 | 3.51 | – | –
